In brackets after ≈: the same amount, converted by molar mass.
Key:
[1] = test system: E. coli ATCC 25922 (AECO001); assay: MIC assay, CLSI broth microdilution, AECO001; assay type: cell-based; conditions: Escherichia coli; AECO001 is ATCC25922; Mueller Hinton Broth, 35 C, 20 hours
Protocol: (§1) Minimum inhibitory concentrations (MIC) were determined by reference Clinical and Laboratory Standards Institute (CLSI) broth microdilution methods per M7-A7 [2006]. Quality control ranges utilizing E. coli ATCC 25922, P. aeruginosa ATCC 27853 and S. aureus ATCC 29213, and interpretive criteria for comparator agents were as published in CLSI M100-S17 [2007]. Briefly, serial two-fold dilutions of the test compounds were prepared at 2× concentration in Mueller Hinton Broth. The compound dilutions were mixed in 96-well assay plates in a 1:1 ratio with bacterial inoculum. The inoculum was prepared by suspension of a colony from an agar plate that was prepared the previous day. Bacteria were suspended in sterile saline and added to each assay plate to obtain a final concentration of 5×10^5 CFU/mL. The plates were incubated at 35 C for 20 hours in ambient air.

[2] = test system: P. aeruginosa ATCC 27853 (APAE001); assay: MIC assay, CLSI broth microdilution, APAE001; assay type: cell-based; conditions: Pseudomonas aeruginosa; APAE001 is ATCC27853; Mueller Hinton Broth, 35 C, 20 hours
Protocol: as §1

MIC [1]	MIC [2]	Compound
1 to 16 µg/mL (≈ 1.4 to 22.4 µM)	≤ 1 µg/mL	NC[C@@H]1C[C@@H](O)[C@@H](N)[C@@H](O[C@H]2[C@H](O[C@@H]3O[C@H](CO)[C@@H](O[C@H]4O[C@@H](CN)[C@@H](O)[C@H](O)[C@H]4N)[C@H]3O)[C@@H](O)[C@H](NC(=O)[C@@H](O)[C@@H](O)CN)C[C@@H]2N)O1 [6/3]
≤ 1 µg/mL	≤ 1 µg/mL	NC[C@@H](F)[C@H](O)C(=O)N[C@@H]1C[C@H](N)[C@@H](O[C@H]2O[C@H](CN)[C@@H](O)C[C@H]2N)[C@H](O[C@@H]2O[C@H](CO)[C@@H](O[C@H]3O[C@@H](CN)[C@@H](O)[C@H](O)[C@H]3N)[C@H]2O)[C@H]1O [3/3]
1 to 16 µg/mL (≈ 1.36 to 21.7 µM)	≤ 1 µg/mL	NC[C@@H]1C[C@@H](O)[C@@H](N)[C@@H](O[C@H]2[C@H](O[C@@H]3O[C@H](CO)[C@@H](O[C@H]4O[C@@H](CN)[C@@H](O)[C@H](O)[C@H]4N)[C@H]3O)[C@@H](O)[C@H](NC(=O)[C@@H](O)C(F)(F)CN)C[C@@H]2N)O1 [8/3]

Further lines, the compound ahead of its results:

Compound	MIC [1]	MIC [2]
NC[C@@H]1O[C@H](O[C@H]2[C@@H](O)[C@H](O[C@@H]3[C@@H](O)[C@H](NC(=O)[C@@H](O)[C@@H](O)CN)C[C@H](N)[C@H]3O[C@H]3O[C@H](CN)[C@@H](O)C[C@H]3N)O[C@@H]2CO)[C@H](N)[C@@H](O)[C@@H]1O [2/3]	1 to 16 µg/mL (≈ 1.4 to 22.4 µM)	≤ 1 µg/mL
NC[C@@H](O)[C@H](O)C(=O)N[C@@H]1C[C@H](N)[C@@H](O[C@H]2O[C@H](CN)[C@@H](O)C[C@H]2N)[C@H](O[C@@H]2O[C@H](CO)[C@@H](O[C@H]3O[C@@H](CN)[C@@H](O)[C@H](O)[C@H]3N)[C@H]2O)[C@H]1O [1/11]	1 to 16 µg/mL (≈ 1.4 to 22.4 µM)	≤ 1 µg/mL
NC[C@@H]1C[C@@H](O)[C@@H](N)[C@@H](O[C@H]2[C@H](O[C@@H]3O[C@H](CO)[C@@H](O[C@H]4O[C@@H](CN)[C@@H](O)[C@H](O)[C@H]4N)[C@H]3O)[C@@H](O)[C@H](NC(=O)[C@@H](O)[C@H](O)CN)C[C@@H]2N)O1 [5/12]	1 to 16 µg/mL (≈ 1.4 to 22.4 µM)	≤ 1 µg/mL
NC[C@@H]1C[C@@H](O)[C@@H](N)[C@@H](O[C@H]2[C@H](O[C@@H]3O[C@H](CO)[C@@H](O[C@H]4O[C@@H](CN)[C@@H](O)[C@H](O)[C@H]4N)[C@H]3O)[C@@H](O)[C@H](NC(=O)[C@@H](O)[C@H](F)CN)C[C@@H]2N)O1 [7/3]	1 to 16 µg/mL (≈ 1.39 to 22.3 µM)	≤ 1 µg/mL
NC[C@@H]1O[C@H](O[C@H]2[C@@H](O)[C@H](O[C@@H]3[C@@H](O)[C@H](NC(=O)[C@@H](O)C(F)(F)CN)C[C@H](N)[C@H]3O[C@H]3O[C@H](CN)[C@@H](O)C[C@H]3N)O[C@@H]2CO)[C@H](N)[C@@H](O)[C@@H]1O [4/3]	1 to 16 µg/mL (≈ 1.36 to 21.7 µM)	≤ 1 µg/mL

From patent publication US8481502B2, “Antibacterial aminoglycoside analogs” (Achaogen, Inc., priority 2009, dated 2013)
